Test results taken from ChEMBL document CHEMBL3792365, “Dioxol and dihydrodioxin analogs of 2- and 3-phenylacetonitriles as potent anti-cancer agents with nanomolar activity against a variety of human cancer cells” (2016).

How the values were obtained:
Format in all cases: functional
U-251 = experiment: Growth inhibition of human U251 cells at 10 uM after 48 hrs by sulforhodamine B assay; conditions: U-251, 48 h, values are per cent of control
[1] = Growth inhibition of human LOXIMVI cells at 10 uM after 48 hrs by sulforhodamine B assay; conditions: LOX IMVI, values are per cent of control
M14 = experiment: Growth inhibition of human M14 cells at 10 uM after 48 hrs by sulforhodamine B assay; conditions: M14, 48 h, values are per cent of control
MDA-MB-435 = experiment: Growth inhibition of human MDA-MB-435 cells at 10 uM after 48 hrs by sulforhodamine B assay; conditions: MDA-MB-435, 48 h, values are per cent of control
SK-MEL-5 = experiment: Growth inhibition of human SK-MEL-5 cells at 10 uM after 48 hrs by sulforhodamine B assay; conditions: SK-MEL-5, 48 h, values are per cent of control
[2] = Growth inhibition of human UACC62 cells at 10 uM after 48 hrs by sulforhodamine B assay; conditions: UACC-62, 48 h, values are per cent of control
[3] = Growth inhibition of human OVCAR4 cells at 10 uM after 48 hrs by sulforhodamine B assay; conditions: OVCAR-4, 48 h, values are per cent of control
[4] = Growth inhibition of human OVCAR5 cells at 10 uM after 48 hrs by sulforhodamine B assay; conditions: OVCAR-5, 48 h, values are per cent of control
[5] = Growth inhibition of human OVCAR8 cells at 10 uM after 48 hrs by sulforhodamine B assay; conditions: OVCAR-8, 48 h, values are per cent of control
[6] = Growth inhibition of human NCI-ADR-RES cells at 10 uM after 48 hrs by sulforhodamine B assay; conditions: values are per cent of control
[7] = Growth inhibition of human SKOV3 cells at 10 uM after 48 hrs by sulforhodamine B assay; conditions: SK-OV-3, 48 h, values are per cent of control
A498 = experiment: Growth inhibition of human A498 cells at 10 uM after 48 hrs by sulforhodamine B assay; conditions: A498, 48 h, values are per cent of control
ACHN = experiment: Growth inhibition of human ACHN cells at 10 uM after 48 hrs by sulforhodamine B assay; conditions: values are per cent of control
[8] = Growth inhibition of human Caki1 cells at 10 uM after 48 hrs by sulforhodamine B assay; conditions: CAKI-1, 48 h, values are per cent of control
SN12C = experiment: Growth inhibition of human SN12C cells at 10 uM after 48 hrs by sulforhodamine B assay; conditions: values are per cent of control
[9] = Growth inhibition of human TK10 cells at 10 uM after 48 hrs by sulforhodamine B assay; conditions: TK-10, 48 h, values are per cent of control
[10] = Growth inhibition of human DU145 cells at 10 uM after 48 hrs by sulforhodamine B assay; conditions: DU-145, 48 h, values are per cent of control
MDA-MB-231 = experiment: Growth inhibition of human MDA-MB-231 cells at 10 uM after 48 hrs by sulforhodamine B assay; conditions: MDA-MB-231, 48 h, values are per cent of control
[11] = Growth inhibition of human Hs 578T cells at 10 uM after 48 hrs by sulforhodamine B assay; conditions: values are per cent of control
[12] = Growth inhibition of human BT549 cells at 10 uM after 48 hrs by sulforhodamine B assay; conditions: BT-549, 48 h, values are per cent of control
T47D = experiment: Growth inhibition of human T47D cells at 10 uM after 48 hrs by sulforhodamine B assay; conditions: values are per cent of control
MDA-MB-468 = experiment: Growth inhibition of human MDA-MB-468 cells at 10 uM after 48 hrs by sulforhodamine B assay; conditions: MDA-MB-468, 48 h, values are per cent of control
K562 = experiment: Growth inhibition of human K562 cells at 10 uM after 48 hrs by sulforhodamine B assay; conditions: K562, 48 h, values are per cent of control
SR = experiment: Growth inhibition of human SR cells at 10 uM after 48 hrs by sulforhodamine B assay; conditions: values are per cent of control
A549 = experiment: Growth inhibition of human A549/ATCC cells at 10 uM after 48 hrs by sulforhodamine B assay; conditions: A549, 48 h, values are per cent of control
NCI-H226 = experiment: Growth inhibition of human NCI-H226 cells at 10 uM after 48 hrs by sulforhodamine B assay; conditions: NCI-H226, 48 h, values are per cent of control
NCI-H23 = experiment: Growth inhibition of human NCI-H23 cells at 10 uM after 48 hrs by sulforhodamine B assay; conditions: NCI-H23, 48 h, values are per cent of control
NCI-H322M = experiment: Growth inhibition of human NCI-H322M cells at 10 uM after 48 hrs by sulforhodamine B assay; conditions: values are per cent of control
NCI-H460 = experiment: Growth inhibition of human NCI-H460 cells at 10 uM after 48 hrs by sulforhodamine B assay; conditions: NCI-H460, 48 h, values are per cent of control
NCI-H522 = experiment: Growth inhibition of human NCI-H522 cells at 10 uM after 48 hrs by sulforhodamine B assay; conditions: NCI-H522, 48 h, values are per cent of control
[13] = Growth inhibition of human COLO205 cells at 10 uM after 48 hrs by sulforhodamine B assay; conditions: COLO 205, 48 h, values are per cent of control
[14] = Growth inhibition of human HCT116 cells at 10 uM after 48 hrs by sulforhodamine B assay; conditions: HCT-116, 48 h, values are per cent of control
[15] = Growth inhibition of human HCT15 cells at 10 uM after 48 hrs by sulforhodamine B assay; conditions: HCT-15, 48 h, values are per cent of control
HT-29 = experiment: Growth inhibition of human HT-29 cells at 10 uM after 48 hrs by sulforhodamine B assay; conditions: HT-29, 48 h, values are per cent of control
KM12 = experiment: Growth inhibition of human KM12 cells at 10 uM after 48 hrs by sulforhodamine B assay; conditions: KM12, 48 h, values are per cent of control
[16] = Growth inhibition of human SW620 cells at 10 uM after 48 hrs by sulforhodamine B assay; conditions: SW-620, 48 h, values are per cent of control
[17] = Growth inhibition of human SF268 cells at 10 uM after 48 hrs by sulforhodamine B assay; conditions: SF-268, 48 h, values are per cent of control
[18] = Growth inhibition of human SF295 cells at 10 uM after 48 hrs by sulforhodamine B assay; conditions: SF-295, 48 h, values are per cent of control
[19] = Growth inhibition of human SF539 cells at 10 uM after 48 hrs by sulforhodamine B assay; conditions: SF-539, 48 h, values are per cent of control
[20] = Growth inhibition of human SNB19 cells at 10 uM after 48 hrs by sulforhodamine B assay; conditions: SNB-19, 48 h, values are per cent of control

In the case of `COc1ccc(/C(C#N)=C/c2ccc3c(c2)OCCO3)cc1OC`, the growth, % of control at 10 µM (U-251) is reported as 19.9%, the growth, % of control at 10 µM [1] is reported as 44.9% and the growth, % of control at 10 µM (M14) is reported as 19.7%. The growth, % of control at 10 µM (MDA-MB-435) was -17.6%, the growth, % of control at 10 µM (SK-MEL-5) was 16.8% and the growth, % of control at 10 µM [2] was 43.7%. For the same molecule, the growth, % of control at 10 µM [3] was 69.3%, the growth, % of control at 10 µM [4] was 73.5% and the growth, % of control at 10 µM [5] was 30.1%. The growth, % of control at 10 µM [6] was 24.5%, the growth, % of control at 10 µM [7] was 20% and the growth, % of control at 10 µM (A498) was -4.1%. It also gave a growth, % of control at 10 µM (ACHN) of 51.3%, a growth, % of control at 10 µM [8] of 17.6% and a growth, % of control at 10 µM (SN12C) of 56.7%. It also gave a growth, % of control at 10 µM [9] of 45.7%, a growth, % of control at 10 µM [10] of 20.7% and a growth, % of control at 10 µM (MDA-MB-231) of 63%. For the same molecule, the growth, % of control at 10 µM [11] was 16.3%, the growth, % of control at 10 µM [12] was 19.2% and the growth, % of control at 10 µM (T47D) was 31%. For the same molecule, the growth, % of control at 10 µM (MDA-MB-468) was -11.4%, the growth, % of control at 10 µM (K562) was 11.6% and the growth, % of control at 10 µM (SR) was 1.8%. For the same molecule, the growth, % of control at 10 µM (A549) was 40%, the growth, % of control at 10 µM (NCI-H226) was 71.1% and the growth, % of control at 10 µM (NCI-H23) was 46.8%. It also gave a growth, % of control at 10 µM (NCI-H322M) of 34.5%, a growth, % of control at 10 µM (NCI-H460) of 12.4% and a growth, % of control at 10 µM (NCI-H522) of -30.1%. It also gave a growth, % of control at 10 µM [13] of -1.3%, a growth, % of control at 10 µM [14] of 22.3% and a growth, % of control at 10 µM [15] of 31.6%. It also gave a growth, % of control at 10 µM (HT-29) of 6.6%, a growth, % of control at 10 µM (KM12) of 30.6% and a growth, % of control at 10 µM [16] of 15.5%. It also gave a growth, % of control at 10 µM [17] of 53.2%, a growth, % of control at 10 µM [18] of -14% and a growth, % of control at 10 µM [19] of 5.6%. The growth, % of control at 10 µM [20] was 53.2%.
`COc1ccc(/C=C(\C#N)c2ccc3c(c2)OCO3)cn1` showed a growth, % of control at 10 µM (U-251) of 84.5%, a growth, % of control at 10 µM [1] of 95.6% and a growth, % of control at 10 µM (M14) of 91.1%. It also gave a growth, % of control at 10 µM (MDA-MB-435) of 37.2%, a growth, % of control at 10 µM (SK-MEL-5) of 84.1% and a growth, % of control at 10 µM [2] of 79.9%. The growth, % of control at 10 µM [3] was 81.6%, the growth, % of control at 10 µM [4] was 95% and the growth, % of control at 10 µM [5] was 90.1%. For the same molecule, the growth, % of control at 10 µM [6] was 86%, the growth, % of control at 10 µM [7] was 83.1% and the growth, % of control at 10 µM (A498) was 70.8%. The growth, % of control at 10 µM (ACHN) was 93.4%, the growth, % of control at 10 µM [8] was 75.3% and the growth, % of control at 10 µM (SN12C) was 92.6%. The growth, % of control at 10 µM [9] was 80.4%, the growth, % of control at 10 µM [10] was 97.4% and the growth, % of control at 10 µM (MDA-MB-231) was 75.6%. The growth, % of control at 10 µM [11] was 101%, the growth, % of control at 10 µM [12] was 81% and the growth, % of control at 10 µM (T47D) was 81%. For the same molecule, the growth, % of control at 10 µM (MDA-MB-468) was 60.8%, the growth, % of control at 10 µM (K562) was 64.2% and the growth, % of control at 10 µM (SR) was 50.1%. For the same molecule, the growth, % of control at 10 µM (A549) was 77.4%, the growth, % of control at 10 µM (NCI-H226) was 93.3% and the growth, % of control at 10 µM (NCI-H23) was 93.7%. It also gave a growth, % of control at 10 µM (NCI-H322M) of 98.3%, a growth, % of control at 10 µM (NCI-H460) of 95.2% and a growth, % of control at 10 µM (NCI-H522) of 79.8%. It also gave a growth, % of control at 10 µM [13] of 97.6%, a growth, % of control at 10 µM [14] of 82.6% and a growth, % of control at 10 µM [15] of 78%. It also gave a growth, % of control at 10 µM (HT-29) of 63.8%, a growth, % of control at 10 µM (KM12) of 63.9% and a growth, % of control at 10 µM [16] of 86.1%. For the same molecule, the growth, % of control at 10 µM [17] was 91%, the growth, % of control at 10 µM [18] was 89.3% and the growth, % of control at 10 µM [19] was 83.1%. It also gave a growth, % of control at 10 µM [20] of 96.4%.
